Data as given in patent publication US8461328B2, “Tricyclic heterocyclic compounds, compositions and methods of use thereof” (Genentech, Inc., priority 2010, dated 2013).
Structures can show the parent of a compound that is named as a salt. Where two headings read alike, the source gives them in different places.

Tests used:
Format in all cases: biochemical
JAK2 = biological target: T1, JAK2 (Homo sapiens, UniProt O60674); experiment: JAK2 inhibition (Table 4); settings: read-out: JAK2 Ki
T1 construct: made in house; host or cells: SF9 insect cells (baculovirus)

JAK1 = biological target: T2, JAK1 (Homo sapiens, UniProt P23458); experiment: JAK1 inhibition (Table 4)
T2 construct: made in house; host or cells: SF9 insect cells (baculovirus)

JAK3 = biological target: T3, JAK3 (Homo sapiens, UniProt P52333); experiment: JAK3 inhibition (Table 4)
T3 construct: made in house; host or cells: SF9 insect cells (baculovirus)

TYK2 = biological target: T4, TYK2 (Homo sapiens, UniProt P29597); experiment: TYK2 inhibition (Table 4)
T4 construct: made in house; host or cells: SF9 insect cells (baculovirus)
T4 sequence (P29597 873-1187): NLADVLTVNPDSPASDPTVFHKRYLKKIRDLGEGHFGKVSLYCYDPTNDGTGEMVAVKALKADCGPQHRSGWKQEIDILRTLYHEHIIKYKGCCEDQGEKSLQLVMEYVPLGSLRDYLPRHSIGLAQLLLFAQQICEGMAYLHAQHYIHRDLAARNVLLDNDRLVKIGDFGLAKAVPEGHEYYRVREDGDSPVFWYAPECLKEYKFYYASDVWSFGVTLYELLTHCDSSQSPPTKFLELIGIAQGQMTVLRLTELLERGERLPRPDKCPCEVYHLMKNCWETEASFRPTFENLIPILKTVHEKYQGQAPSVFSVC

T3 sequence (P52333 783-1124): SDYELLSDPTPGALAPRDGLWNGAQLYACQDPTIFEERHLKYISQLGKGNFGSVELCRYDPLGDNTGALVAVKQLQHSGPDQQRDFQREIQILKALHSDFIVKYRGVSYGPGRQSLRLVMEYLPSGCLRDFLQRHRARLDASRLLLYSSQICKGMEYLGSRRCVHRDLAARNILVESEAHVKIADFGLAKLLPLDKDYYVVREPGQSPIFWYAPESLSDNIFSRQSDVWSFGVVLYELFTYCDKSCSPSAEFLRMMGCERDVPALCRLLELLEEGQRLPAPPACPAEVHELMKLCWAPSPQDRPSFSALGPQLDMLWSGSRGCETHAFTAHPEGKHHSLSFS
T1 sequence (O60674 812-1132): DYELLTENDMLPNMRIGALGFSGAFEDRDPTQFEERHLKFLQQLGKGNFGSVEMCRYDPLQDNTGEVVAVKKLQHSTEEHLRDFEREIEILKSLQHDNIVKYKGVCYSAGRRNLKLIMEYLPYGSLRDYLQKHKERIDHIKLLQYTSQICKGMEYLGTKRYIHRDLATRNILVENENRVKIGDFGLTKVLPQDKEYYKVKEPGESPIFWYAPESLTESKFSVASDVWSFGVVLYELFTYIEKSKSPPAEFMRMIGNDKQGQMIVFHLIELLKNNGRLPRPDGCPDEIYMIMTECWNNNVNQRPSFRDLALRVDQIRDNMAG
T2 sequence (P23458 852-1154): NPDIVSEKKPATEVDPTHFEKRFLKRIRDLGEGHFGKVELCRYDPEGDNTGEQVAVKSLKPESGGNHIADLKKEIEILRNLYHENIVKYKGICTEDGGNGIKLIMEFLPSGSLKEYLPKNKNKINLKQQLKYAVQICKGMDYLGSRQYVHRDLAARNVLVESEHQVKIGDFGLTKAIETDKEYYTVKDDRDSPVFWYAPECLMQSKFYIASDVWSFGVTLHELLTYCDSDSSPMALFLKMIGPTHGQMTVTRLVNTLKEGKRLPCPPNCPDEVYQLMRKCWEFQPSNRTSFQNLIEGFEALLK

| Ki (JAK2) [nM] | Ki (JAK1; read-out: JAK1 Ki) [nM] | Ki (JAK3; read-out: JAK3 Ki) [nM] | Ki (TYK2) [nM] | Ki (JAK1; JAK1 Ki) [nM] | Ki (JAK3; JAK3 Ki) [nM] | Compound |
| --- | --- | --- | --- | --- | --- | --- |
| 66.2 | 9.51 | 36.6 | 11.1 |  |  | 3-[6-benzenesulfonyl-2-((R)-1-hydroxy-ethyl]-6H-1,3,5,6-tetraaza-as-indecen-1-yl}-cyclohexanecarbonitrile [Example 742] |
| 2.78 | 2.17 | 5.35 | 7.58 |  |  | Cc1nc2cnc3[nH]ccc3c2n1C1CCCCC1C (mixture of isomers) [Example 516, 2-Methyl-1-(2-methyl-cyclohexyl)-1,6-dihydro-1,3,5,6-tetraaza-as-indacene] |
| 0.96 |  |  | 0.51 | 0.27 | 5.26 | N#CCC1CCC(n2c(CO)nc3cnc4[nH]ccc4c32)CC1 (mixture of isomers) [Example 643, [4-(2-Hydroxymethyl-6H-1,2,3,5,6-tetraaza-as-indacen-1-yl)-cyclohexyl]-acetonitrile] |
| 38.6 | 4.82 | 68.6 | 38.4 |  |  | C[C@@H](O)c1nc2cnc3[nH]ccc3c2n1C1CCC(CS(C)(=O)=O)CC1 (mixture of isomers) [Example 649, (R)-1-[1-(4-Methanesulfonylmethyl-cyclohexyl)-1,6-dihydro-1,2,3,5,6-tetraaza-as-indacen-2-yl]-ethanol] |
| 10.4 | 4.87 | 26.5 | 21 |  |  | O=C1CC2CCC(n3cnc4cnc5[nH]ccc5c43)CC2N1 (racemic) [Example 111, 6-(6H-1,2,3,5,6-Tetraaza-as-indacen-1-yl)-octahydro-indol-2-one] |
| 281 | 62.3 | 83.4 | 1050 |  |  | CCC(C)Cc1nc2cnc3[nH]ccc3c2n1C1CCN(CCC#N)CC1 (racemic) [Example 122, 3-{4-[2-(2-Methyl-butyl)-6H-1,2,3,5,6-tetraaza-as-indacen-1-yl]-piperidin-1-yl}-propionitrile] |
| 15.2 | 15.5 | 418 | 193 |  |  | COC(=O)CC(c1cccnc1)N1CCC(n2cnc3cnc4[nH]ccc4c32)CC1 (racemic) [Example 126, 3-pyridin-3-yl-3-[4-(6H-1,2,3,5,6-tetraaza-as-indacen-1-yl)-piperidin-1-yl]-propionic acid methyl ester] |
| 1.82 | 2.6 | 8.46 | 26.1 |  |  | CC1CC(n2cnc3cnc4[nH]ccc4c32)CCN1Cc1ccccc1 (racemic) [Example 127, 1-(1-Benzyl-2-methyl-piperidin-4-yl)-1,6-dihydro-1,2,3,5,6-tetraaza-as-indacene] |
| 2.11 | 2.09 | 60.8 | 82.6 |  |  | CC1CC(n2cnc3cnc4[nH]ccc4c32)CCN1Cc1ccccc1 (racemic) [Example 128, 1-(1-Benzyl-2-methyl-piperidin-4-yl)-1,6-dihydro-1,2,3,5,6-tetraaza-as-indacene] |
| 57.2 | 43.8 | 535 | 312 |  |  | O=C1CC(n2cnc3cnc4[nH]ccc4c32)CCN1Cc1ccccc1 (racemic) [Example 129, 1-Benzyl-4-(6H-1,2,3,5,6-tetraaza-as-indacen-1-yl)-piperidin-2-one] |
| 389 | 126 | 2280 | 622 |  |  | O=C1CCC(n2cnc3cnc4[nH]ccc4c32)CN1 (racemic) [Example 130, 5-(6H-1,2,3,5,6-Tetraaza-as-indacen-1-yl)-piperidin-2-one] |
| 150 | 54.2 | 297 | 798 |  |  | O=C1CC(n2cnc3cnc4[nH]ccc4c32)CCN1 (racemic) [Example 133, 4-(6H-1,2,3,5,6-Tetraaza-as-indacen-1-yl)-piperidin-2-one] |
| 1.61 | 0.98 | 20.3 | 18.4 |  |  | CC1CN(Cc2ccccc2)CCC1n1cnc2cnc3[nH]ccc3c21 (racemic) [Example 149, Racemic cis 1-(1-Benzyl-3-methyl-piperidin-4-yl)-1,6-dihydro-1,2,3,5,6-tetraaza-as-indacene] |
| 11.9 | 4.17 | 17.7 | 292 |  |  | CC1CN(Cc2ccccc2)CCC1n1cnc2cnc3[nH]ccc3c21 (racemic) [Example 150, Racemic trans 1-(1-Benzyl-3-methyl-piperidin-4-yl)-1,6-dihydro-1,2,3,5,6-tetraaza-as-indacene dihydrochloride] |
| 2.27 | 1.78 | 13.5 | 31.2 |  |  | Cc1nc2cnc3[nH]ccc3c2n1C1CCN(Cc2ccccc2)CC1C (racemic) [Example 151, Racemic 1-(1-benzyl-3-methyl-piperidin-4-yl)-2-methyl-1,6-dihydro-1,2,3,5,6-tetraaza-as-indacene dihydrochloride salt] |
| 16.3 | 2.13 | 84.6 | 209 |  |  | CC(O)c1nc2cnc3[nH]ccc3c2n1C1CCN(Cc2cccc(C#N)c2)CC1 (racemic) [Example 156, Racemic 3-{4-[2-(1-Hydroxy-ethyl)-6H-1,2,3,5,6-tetraaza-as-indacen-1-yl]-piperidin-1-ylmethyl}-benzonitrile] |
| 25.1 | 3.59 | 34 | 207 |  |  | CC(O)c1nc2cnc3[nH]ccc3c2n1C1CCN(Cc2ccccc2)CC1 (racemic) [Example 157, Racemic 1-[1-(1-Benzyl-piperidin-4-yl)-1,6-dihydro-1,2,3,5,6-tetraaza-as-indacen-2-yl]-ethanol] |
| 28.2 | 3.76 | 18.2 | 32.9 |  |  | CC(O)c1nc2cnc3[nH]ccc3c2n1C1CCN(CCC#N)CC1 (racemic) [Example 158, Racemic 3-{4-[2-(1-Hydroxy-ethyl)-6H-1,2,3,5,6-tetraaza-as-indacen-1-yl]-piperidin-1-yl}-propionitrile] |
| 251 | 141 | 22.6 | 2770 |  |  | CC(C)NC(=O)C(C)c1nc2cnc3[nH]ccc3c2n1C1CCN(CCC#N)CC1 (racemic) [Example 172, Racemic 2-{1-[1-(2-Cyano-ethyl)-piperidin-4-yl]-1,6-dihydro-1,2,3,5,6-tetraaza-as-indacene-2-yl}-N-isopropyl-propionamide] |
| 142 | 48.7 | 417 | 330 |  |  | CC1CC(n2cnc3cnc4[nH]ccc4c32)CCN1 (racemic) [Example 229, 1-(2-Methyl-piperidin-4-yl)-1,6-dihydro-1,3,5,6-tetraaza-as-indacene] |
| 123 | 47.8 | 424 | 435 |  |  | CC1CC(n2cnc3cnc4[nH]ccc4c32)CCN1 (racemic) [Example 230, 1-(2-Methyl-piperidin-4-yl)-1,6-dihydro-1,3,5,6-tetraaza-as-indacene] |
| 6.56 | 4.37 | 42.6 | 17.9 |  |  | O=C(C1CC1F)N1CCC[C@@H](n2cnc3cnc4[nH]ccc4c32)C1 (mixture of isomers) [Example 235, (2-Fluoro-cyclopropyl)-[(R)-3-(6H-1,3,5,6-tetraaza-as-indacen-1-yl)-piperidin-1-yl]-methanone] |
| 363 | 198 | 3400 | 1820 |  |  | CC(C)(C)OC(=O)N1CCCC1(C)C(=O)N1CCC(n2cnc3cnc4[nH]ccc4c32)CC1 (racemic) [Example 244, 2-Methyl-2-[4-(6H-1,3,5,6-tetraaza-as-indacen-1-yl)-piperidine-1-carbonyl]-pyrrolidine-1 carboxylic acid tert-butyl ester] |
| 269 | 216 | 2040 | 3450 |  |  | CC1(C(=O)N2CCC(n3cnc4cnc5[nH]ccc5c43)CC2)CCCN1 (racemic) [Example 251] |
| 854 | 10.2 | 731 | 339 |  |  | CC(O)c1nc2cnc3[nH]ccc3c2n1C1CCNCC1 (racemic) [Example 291] |
| 26.5 | 2.92 | 7.9 | 218 |  |  | CC(O)c1nc2cnc3[nH]ccc3c2n1C1CCN(Cc2cccnc2)CC1 (racemic) [Example 292, 1-[1-(1-Pyridin-3-ylmethyl-piperidin-4-yl)-1,6-dihydro-1,3,5,6-tetraaza-as-indacen-2-yl]-ethanol] |
| 176 | 37.6 | 151 | 380 |  |  | NC1CCC(n2cnc3cnc4[nH]ccc4c32)C1 (racemic) [Example 294, 3-(6H-1,3,5,6-Tetraaza-as-indacen-1-yl)-cyclopentylamine] |
| 18.3 | 7.81 | 28.8 | 65.9 |  |  | N#CCCNC1CCC(n2cnc3cnc4[nH]ccc4c32)C1 (racemic) [Example 300, 3-[3-(6H-1,3,5,6-Tetraaza-as-indacen-1-yl)-cyclopentylamino]-propionitrile] |
| 0.93 | 0.78 | 17 | 3.7 |  |  | CC(CC#N)N1CCC(n2cnc3cnc4[nH]ccc4c32)CC1 (racemic) [Example 305, 3-[4-(6H-1,3,5,6-Tetraaza-as-indacen-1-yl)-piperidin-1-yl]-butyronitrile] |
